Converted amounts (≈) assume the structure as drawn.
Columns and labels:
Streptococcus pneumoniae [1] = assay: Antimicrobial activity against Streptococcus pneumoniae 1629; type: functional
[2] = Inhibition of Haemophilus influenzae PDF by absorbance detection assay
Staphylococcus aureus [3] = assay: Antimicrobial activity against Staphylococcus aureus Oxford; type: functional
Peptide deformylase [4] = target: T1, Peptide deformylase (Staphylococcus aureus, UniProt P68826); assay: Inhibition of Staphylococcus aureus PDF by absorbance detection assay
T1 sequence (P68826 whole entry): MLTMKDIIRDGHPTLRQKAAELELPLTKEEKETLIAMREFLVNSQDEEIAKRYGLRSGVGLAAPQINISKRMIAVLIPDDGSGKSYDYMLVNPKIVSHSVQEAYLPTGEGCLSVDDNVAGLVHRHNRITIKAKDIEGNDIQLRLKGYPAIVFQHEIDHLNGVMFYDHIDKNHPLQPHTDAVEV

[5] = Solubility of compound by chemiluminescent nitrogen detection assay; type: physicochemical
[6] = Chromatographic hydrophobicity index, log D of compound at pH 7.4; type: physicochemical; conditions: buffer
[7] = Inhibition of Streptococcus pneumoniae PDF by absorbance detection assay
Haemophilus influenzae [8] = assay: Antimicrobial activity against Haemophilus influenzae Q1; type: functional
[9] = Inhibition of Haemophilus influenzae PDF by fluorescence detection assay
Peptide deformylase [10] = target: T1, Peptide deformylase; assay: Inhibition of Staphylococcus aureus PDF by fluorescence detection assay
[11] = Inhibition of Streptococcus pneumoniae PDF by fluorescence detection assay
Staphylococcus aureus [12] = assay: Antimicrobial activity against Staphylococcus aureus; type: functional
Streptococcus pneumoniae [13] = assay: Antimicrobial activity against Streptococcus pneumoniae; type: functional
Haemophilus influenzae [14] = assay: Antimicrobial activity against Haemophilus influenzae; type: functional
Peptide deformylase [15] = target: T2, Peptide deformylase (Escherichia coli, UniProt Q9JN24); assay: Inhibition of Escherichia coli PDF
T2 sequence (Q9JN24 whole entry): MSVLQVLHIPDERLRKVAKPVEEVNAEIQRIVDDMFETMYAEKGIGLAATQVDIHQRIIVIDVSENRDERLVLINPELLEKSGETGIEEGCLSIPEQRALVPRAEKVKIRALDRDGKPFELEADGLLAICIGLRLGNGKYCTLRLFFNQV

Streptococcus pneumoniae [16] = assay: Antimicrobial activity against Streptococcus pneumoniae Ery-2 infected in respiratory tract infection rat model assessed as log reduction in bacterial CFU at 350 mg/kg, po BID dosed 1 hr post infection and measured for 96 hrs in presence of 50 mg/kg clavulanic acid; type: functional
Streptococcus pneumoniae [17] = assay: Antimicrobial activity against Streptococcus pneumoniae Ery-2 in presence of clavulanic acid; type: functional
[18] = AUC in rat at 8.5 mg/kg, po; type: ADME, organism-based; conditions: in vivo
[19] = Oral bioavailability in rat at 8.5 mg/kg; type: ADME, organism-based; conditions: in vivo
[20] = AUC in rat at 3.9 mg/kg, iv; type: ADME, organism-based; conditions: in vivo
[21] = Half life in rat at 3.9 mg/kg, iv; type: ADME, organism-based; conditions: in vivo
[22] = Cmax in rat at 8.5 mg/kg, po; type: ADME, organism-based; set-up: dose 8.5 mg/kg, route oral; conditions: in vivo
[23] = Clearance in rat at 3.9 mg/kg, iv; type: ADME, organism-based; conditions: in vivo
[24] = Volume of distribution at steady state in rat at 3.9 mg/kg, iv; type: ADME, organism-based; conditions: in vivo, read-out: Vdss

| Compound | MIC (Streptococcus pneumoniae [1]) [µg/mL] | MIC (Staphylococcus aureus [3]) [µg/mL] | IC50 (Peptide deformylase [4]) [nM] | solubility kinetic [5] [µM] | CHI [6] | IC50 [7] [nM] | MIC (Haemophilus influenzae [8]) [µg/mL] | IC50 [9] [nM] | IC50 (Peptide deformylase [10]) [nM] | IC50 [11] [nM] | MIC90 (Staphylococcus aureus [12]) [µg/mL] | MIC90 (Streptococcus pneumoniae [13]) [µg/mL] | MIC90 (Haemophilus influenzae [14]) [µg/mL] | other results |
| --- | --- | --- | --- | --- | --- | --- | --- | --- | --- | --- | --- | --- | --- | --- |
| CN(C(=O)[C@@H]1CCCNN1C(=O)[C@H](CC1CCCC1)CN(O)C=O)c1ccccn1 | 2 (≈ 4.79 µM) | 4 (≈ 9.58 µM) | 18 | > 657 | 3.3 | 8 | 4 (≈ 9.58 µM) | – | – | – | – | – | – | IC50 [2]: 15 nM |
| O=CN(O)C[C@@H](CC1CCCC1)C(=O)N1NCCC[C@H]1C(=O)Nc1cccc2c1COB2O | 8 (≈ 17.5 µM) | 2 (≈ 4.36 µM) | – | > 544 | 3.2 | – | 0.5 (≈ 1.09 µM) | 79 | 158 | 40 | – | – | – | – |
| Cc1ccc(NC(=O)[C@@H]2CCCNN2C(=O)[C@H](CC2CCCC2)CN(O)C=O)nc1 | 2 (≈ 4.79 µM) | 1 (≈ 2.4 µM) | – | > 565 | 4.1 | – | 1 (≈ 2.4 µM) | 25 | 2 | 0.6 | 1 (≈ 2.4 µM) | 2 (≈ 4.79 µM) | 4 (≈ 9.58 µM) | – |
| CCC(=O)[C@@H](NC(=O)[C@@H]1CCCNN1C(=O)[C@@H](CC(=O)O)CC(C)C)C(C)C | – | – | – | – | – | – | – | – | – | – | – | – | – | Ki (Peptide deformylase [15]): 60 nM |
| Cc1ccnc(NC(=O)[C@@H]2CCCNN2C(=O)[C@H](CC2CCCC2)CN(O)C=O)c1 | 2 (≈ 4.79 µM) | 1 (≈ 2.4 µM) | – | > 565 | 4.05 | – | 2 (≈ 4.79 µM) | 40 | 2 | 0.4 | 1 (≈ 2.4 µM) | 1 (≈ 2.4 µM) | 4 (≈ 9.58 µM) | – |
| CC1(C)S[C@@H]2[C@H](NC(=O)[C@H](N)c3ccc(O)cc3)C(=O)N2[C@H]1C(=O)O [AMOXICILLIN] | – | – | – | – | – | – | – | – | – | – | – | – | – | Activity (Streptococcus pneumoniae [16]): 5.2 log10CFU/ml; MIC (Streptococcus pneumoniae [17]): 0.03 µg/mL |
| Cc1nc(NNC(=O)[C@H](CC2CCCC2)CN(O)C=O)c(F)c(N2CCN3CCOC[C@@H]3C2)n1 [LANOPEPDEN] | 1 (≈ 2.09 µM) | 2 (≈ 4.17 µM) | 12 | 241 (≈ 116 µg/mL) | 2.54 | 3 | 0.5 (≈ 1.04 µM) | – | – | – | 4 (≈ 8.34 µM) | 1 (≈ 2.09 µM) | 2 (≈ 4.17 µM) | AUC [18]: 1450 ng·h/mL; bioavailability [19]: 91%; AUC [20]: 720 ng·h/mL; IC50 [2]: 3 nM; half-life [21]: 42 min; Cmax [22]: 902 ng/mL; clearance [23]: 88 mL/min/kg; Vd [24]: 2.5 L/kg |

The next lines start with results.

| MIC (Streptococcus pneumoniae [1]) [µg/mL] | MIC (Staphylococcus aureus [3]) [µg/mL] | IC50 (Peptide deformylase [4]) [nM] | solubility kinetic [5] [µM] | CHI [6] | IC50 [7] [nM] | MIC (Haemophilus influenzae [8]) [µg/mL] | IC50 [9] [nM] | IC50 (Peptide deformylase [10]) [nM] | IC50 [11] [nM] | MIC90 (Staphylococcus aureus [12]) [µg/mL] | MIC90 (Streptococcus pneumoniae [13]) [µg/mL] | MIC90 (Haemophilus influenzae [14]) [µg/mL] | Compound | other results |
| --- | --- | --- | --- | --- | --- | --- | --- | --- | --- | --- | --- | --- | --- | --- |
| 1 (≈ 2.48 µM) | 0.5 (≈ 1.24 µM) | 2 | > 463 | 3.71 | 1 | 0.5 (≈ 1.24 µM) | – | – | – | – | – | – | O=CN(O)C[C@@H](CC1CCCC1)C(=O)N1NCCC[C@H]1C(=O)Nc1ccccn1 | IC50 [2]: 3 nM |
| 0.5 (≈ 1.12 µM) | 4 (≈ 8.96 µM) | – | > 364 | 4.88 | – | 4 (≈ 8.96 µM) | 32 | 20 | 8 | – | – | – | CN(C)c1cccc(NC(=O)[C@@H]2CCCNN2C(=O)[C@H](CC2CCCC2)CN(O)C=O)n1 | – |
| 0.25 (≈ 0.497 µM) | 0.5 (≈ 0.995 µM) | – | > 573 | 2.7 | – | 2 (≈ 3.98 µM) | 25 | 3 | 1 | 0.5 (≈ 0.995 µM) | 0.25 (≈ 0.497 µM) | 2 (≈ 3.98 µM) | CN1CCN(c2cc(NC(=O)[C@@H]3CCCNN3C(=O)[C@H](CC3CCCC3)CN(O)C=O)ncn2)CC1 | – |
| 1 (≈ 2.37 µM) | 0.5 (≈ 1.19 µM) | 2 | > 739 | 4.13 | 0.6 | 0.5 (≈ 1.19 µM) | – | – | – | 1 (≈ 2.37 µM) | 2 (≈ 4.75 µM) | 2 (≈ 4.75 µM) | O=CN(O)C[C@@H](CC1CCCC1)C(=O)N1NCCC[C@H]1C(=O)Nc1ccc(F)cn1 | – |
| 0.5 (≈ 1.12 µM) | 0.5 (≈ 1.12 µM) | – | > 649 | 3.38 | – | 2 (≈ 4.47 µM) | 13 | 1 | 0.3 | – | – | – | CN(C)c1cc(NC(=O)[C@@H]2CCCNN2C(=O)[C@H](CC2CCCC2)CN(O)C=O)ncn1 | – |

From ChEMBL document CHEMBL4433235, “Discovery of piperazic acid peptide deformylase inhibitors with in vivo activity for respiratory tract and skin infections” (Bioorg Med Chem Lett, 2019)
